Results as given in US7855177B1, “Methods and kits for preventing hypoglycemia” (Cebix Inc., priority 2009, dated 2010).

Columns and labels:
[1] = test system: type 1 diabetes patients with peripheral neuropathy; test: Phase II trial: ECG and vital signs; format: in vivo, human; conditions: for BPd (diastolic blood pressure), change from baseline to 6 months treatment, Mean ± SD / BPd (diastolic blood pressure), change from baseline to 6 months treatment, Median / BPs (systolic blood pressure), change from baseline to 6 months treatment, Mean ± SD / BPs (systolic blood pressure), change from baseline to 6 months treatment, Median / Heart rate, change from baseline to 6 months treatment, Mean ± SD / Heart rate, change from baseline to 6 months treatment, Median / QTc-interval Bazett, change from baseline to 6 months treatment, Mean ± SD / QTc-interval Bazett, change from baseline to 6 months treatment, Median / QTc-interval Fredericia, change from baseline to 6 months treatment, Mean ± SD / QTc-interval Fredericia, change from baseline to 6 months treatment, Median: PP data set
Experimental: ECG was performed at baseline and at end of study, i.e., visit 4 (at 6 months±2 weeks from the S/B visit).

[2] = test system: type 1 diabetes patients with peripheral neuropathy; test: Phase II trial: hypoglycemic events and hypoglycemic coma; format: in vivo, human
Experimental: The study was a multicenter, double-blind, randomized, placebo-controlled phase II trial comparing the effect of subcutaneous injection (S.C.) of 500 nmoL/24 h (1.5 mg) C-peptide; 1,500 nmoL/24 h (4.5 mg) C-peptide and placebo treatment for 6 months in type 1 diabetes patients with peripheral neuropathy.
Hypoglycemic events are common events in insulin-treated patients. For practical reasons only severe hypoglycemic events, i.e., if the patient required assistance from another person in order to regain normoglycaemia, were reported as an AE.

[3] = S.C.; cited from earlier work
[4] = High-dose C-peptide, Metabolism and nutritional disorders
[5] = Low-dose C-peptide, Metabolism and nutritional disorders

CC(C)C[C@H](NC(=O)[C@H](C)NC(=O)[C@H](CC(C)C)NC(=O)[C@@H]1CCCN1C(=O)[C@H](CCC(N)=O)NC(=O)[C@H](CC(C)C)NC(=O)[C@H](CO)NC(=O)CNC(=O)[C@H](C)NC(=O)CNC(=O)[C@@H]1CCCN1C(=O)CNC(=O)CNC(=O)CNC(=O)[C@H](CC(C)C)NC(=O)[C@H](CCC(=O)O)NC(=O)[C@@H](NC(=O)[C@H](CCC(N)=O)NC(=O)CNC(=O)[C@@H](NC(=O)[C@H](CCC(N)=O)NC(=O)[C@H](CC(C)C)NC(=O)[C@H](CC(=O)O)NC(=O)[C@H](CCC(=O)O)NC(=O)[C@H](C)NC(=O)[C@@H](N)CCC(=O)O)C(C)C)C(C)C)C(=O)N[C@@H](CCC(=O)O)C(=O)NCC(=O)N[C@@H](CO)C(=O)N[C@@H](CC(C)C)C(=O)N[C@@H](CCC(N)=O)C(=O)O [C-peptide]
BPd (diastolic blood pressure), change from baseline to 6 months treatment, Mean ± SD ([1]; High-dose C-peptide, n = 39): −2.6 ± 8.0 mm Hg
BPd (diastolic blood pressure), change from baseline to 6 months treatment, Median ([1]; High-dose C-peptide, n = 39): −1.0 mm Hg
BPs (systolic blood pressure), change from baseline to 6 months treatment, Mean ± SD ([1]; High-dose C-peptide, n = 39): −8.8 ± 10.0 mm Hg
BPs (systolic blood pressure), change from baseline to 6 months treatment, Median ([1]; High-dose C-peptide, n = 39): −8.0 mm Hg
Heart rate, change from baseline to 6 months treatment, Mean ± SD ([1]; High-dose C-peptide, n = 39): −3.2 ± 10.0 bpm
Heart rate, change from baseline to 6 months treatment, Median ([1]; High-dose C-peptide, n = 39): −4.0 bpm
QTc-interval Bazett, change from baseline to 6 months treatment, Mean ± SD ([1]; High-dose C-peptide, n = 39): -4.5 ± 20.3 ms
QTc-interval Bazett, change from baseline to 6 months treatment, Median ([1]; High-dose C-peptide, n = 39): 0.0 ms
QTc-interval Fredericia, change from baseline to 6 months treatment, Mean ± SD ([1]; High-dose C-peptide, n = 39): -0.5 ± 16.2 ms
QTc-interval Fredericia, change from baseline to 6 months treatment, Median ([1]; High-dose C-peptide, n = 39): 0.0 ms
BPd (diastolic blood pressure), change from baseline to 6 months treatment, Mean ± SD ([1]; Low-dose C-peptide, n = 53): −2.7 ± 8.2 mm Hg
BPd (diastolic blood pressure), change from baseline to 6 months treatment, Median ([1]; Low-dose C-peptide, n = 53): −1.0 mm Hg
BPs (systolic blood pressure), change from baseline to 6 months treatment, Mean ± SD ([1]; Low-dose C-peptide, n = 53): −2.1 ± 12.8 mm Hg
BPs (systolic blood pressure), change from baseline to 6 months treatment, Median ([1]; Low-dose C-peptide, n = 53): −1.0 mm Hg
Heart rate, change from baseline to 6 months treatment, Mean ± SD ([1]; Low-dose C-peptide, n = 53): −0.9 ± 8.2 bpm
Heart rate, change from baseline to 6 months treatment, Median ([1]; Low-dose C-peptide, n = 53): −2.0 bpm
QTc-interval Bazett, change from baseline to 6 months treatment, Mean ± SD ([1]; Low-dose C-peptide, n = 53): -0.1 ± 17.5 ms
QTc-interval Bazett, change from baseline to 6 months treatment, Median ([1]; Low-dose C-peptide, n = 53): 0.0 ms
QTc-interval Fredericia, change from baseline to 6 months treatment, Mean ± SD ([1]; Low-dose C-peptide, n = 53): 0.9 ± 14.1 ms
QTc-interval Fredericia, change from baseline to 6 months treatment, Median ([1]; Low-dose C-peptide, n = 53): 1.3 ms
changes in heart rate, blood pressure, and QTc ([1]; any of the three treatment groups): nor were there any significant changes
decrease in systolic blood pressure compared to the low-dose C-peptide group ([1]; high-dose C-peptide group, p<0.004, not different from placebo): significantly greater decrease
hypoglycemic coma episodes requiring external assistance ([2]; C-peptide treated group): Two
occurrences of hypoglycemic coma ([2]; C-peptide treated groups, 6 months, none in placebo group): four
Blood glucose fluctuation, number of AEs [2, 4]: 0
Hyperglycemia, number of AEs [2, 4]: 1
Hyperlipidemia, number of AEs [2, 4]: 0
Hypoglycemia, number of AEs [2, 4]: 5
Hypoglycemia, number of AEs probably/possibly related to study drug [2, 4]: 1
Hypoglycemic coma, number of AEs [2, 4]: 2
Hypothyroidism, number of AEs [2, 4]: 0
Increased appetite, number of AEs [2, 4]: 0
Insulin sensitivity, number of AEs [2, 4]: 0
Vitamin B12 deficiency, number of AEs [2, 4]: 1
Blood glucose fluctuation, number of AEs [2, 5]: 0
Hyperglycemia, number of AEs [2, 5]: 1 (1)
Hyperglycemia, number of AEs probably/possibly related to study drug [2, 5]: 1 (1)
Hyperlipidemia, number of AEs [2, 5]: 1
Hypoglycemia, number of AEs [2, 5]: 2
Hypoglycemia, number of AEs probably/possibly related to study drug [2, 5]: 1
Hypoglycemic coma, number of AEs [2, 5]: 2
Hypothyroidism, number of AEs [2, 5]: 0
Increased appetite, number of AEs [2, 5]: 0
Insulin sensitivity, number of AEs [2, 5]: 1 (1)
Insulin sensitivity, number of AEs probably/possibly related to study drug [2, 5]: 1 (1)
Vitamin B12 deficiency, number of AEs [2, 5]: 0
risk of hypoglycemic coma ([2]; subpopulation of patients, C-peptide replacement therapy): increased risk of hypoglycemic coma
bioavailability of subcutaneously administered C-peptide [3]: approximately 80%
